According to ChEMBL document CHEMBL5154770, “Discovery of novel ataxia telangiectasia mutated (ATM) kinase modulators: Computational simulation, biological evaluation and cancer combinational chemotherapy study” (Eur J Med Chem, 2022):
pIC50: −log10 of the molar value. Values belong to the compound of their own block, whether it stands above or below them. Activity calls are given as the source filed them. No cut-off for these calls is given here.

Key:
MCF7 [1] = test: Additive cytotoxicity against human MCF7 cells measured after 6 days in presence of 5 uM KU55933 by SRB assay; assay type: functional; conditions: time 6 day
NCI-H1299 [2] = test: Cytotoxicity against human NCI-H1299 cells measured in presence of 5 uM 2(((2-(2,4-dichlorobenzyl)oxy)naphthalen-1-yl)methyl)amino)ethan-1-ol after 6 days by SRB assay; assay type: functional, cell-based; conditions: NCI-H1299, 144 h
NCI-H1299 [3] = test: Additive cytotoxicity against human NCI-H1299 cells assessed as combination index measured in presence of 5 uM KU60019 after 2 days by SRB assay; assay type: functional; conditions: time 2 day
SW480 [4] = test: Additive cytotoxicity against human SW480 cells assessed as combination index measured after 9 days in presence of 5 uM KU55933 by SRB assay; assay type: functional; conditions: time 9 day
NCI-H1299 [5] = test: Synergistic cytotoxicity against human NCI-H1299 cells measured in presence of 50 nM AZD0156 after 6 days by SRB assay; assay type: functional, cell-based; conditions: NCI-H1299, 144 h
MCF7 [6] = test: Additive cytotoxicity against human MCF7 cells assessed as combination index measured after 6 days in presence of 5 uM KU55933 by SRB assay; assay type: functional; conditions: time 6 day
MCF7 [7] = test: Antagonistic cytotoxicity against human MCF7 cells assessed as combination index in presence of 30 uM 3-Chloro-4-methoxy-N-((4-(oxazolo[4,5-b]pyridin-2-yl)phenyl)carbamothioyl)benzamide measured after 6 days by SRB assay; assay type: functional; conditions: time 6 day
NCI-H1299 [8] = test: Antagonistic cytotoxicity against human NCI-H1299 cells measured in presence of 50 nM AZD0156 after 2 days by SRB assay; assay type: functional, cell-based; conditions: NCI-H1299, 48 h
MCF7 [9] = test: cells; conditions: Homo sapiens, MCF7, 144 h
SW480 [10] = test: Antitumor activity against human SW480 cells xenografted in BALB/c nude mouse assessed as reduction in tumor weight at 20 mg/kg, ip in presence of 30 mg/kg, iv 2(((2-(2,4-dichlorobenzyl)oxy)naphthalen-1-yl)methyl)amino)ethan-1-ol; assay type: functional, organism-based
NCI-H1299 [11] = test: Antagonistic cytotoxicity against human NCI-H1299 cells assessed as combination index measured in presence of 50 nM AZD0156 after 2 days by SRB assay; assay type: functional; conditions: time 2 day
NCI-H1299 [12] = test: Additive cytotoxicity against human NCI-H1299 cells measured in presence of 5 uM KU60019 after 2 days by SRB assay; assay type: functional, cell-based; conditions: NCI-H1299, 48 h
MCF7 [13] = test: Antagonistic cytotoxicity against human MCF7 cells in presence of 30 uM 3-Chloro-4-methoxy-N-((4-(oxazolo[4,5-b]pyridin-2-yl)phenyl)carbamothioyl)benzamide measured after 6 days by SRB assay; assay type: functional, cell-based; conditions: MCF7, 144 h
SW480 [14] = test: Antitumor activity against human SW480 cells xenografted in BALB/c nude mouse assessed as reduction in tumor weight at 20 mg/kg, ip; assay type: functional, organism-based
NCI-H1299 [15] = test: Synergistic cytotoxicity against human NCI-H1299 cells assessed as combination index measured in presence of 5 uM KU60019 after 2 days by SRB assay; assay type: functional; conditions: time 2 day
[16] = target: T1, Serine-protein kinase ATM (Homo sapiens, UniProt Q13315); test: Inhibition of ATM (unknown origin) assessed as decrease in phosphorylation of KAP1 at 25 uM measured in presence of 50 nM AZD0156 by Western blot analysis
[17] = target: T1, Serine-protein kinase ATM; test: Inhibition of ATM (unknown origin) assessed as decrease in phosphorylation of p21 at 25 uM measured in presence of 5 uM KU60019 by Western blot analysis
SW480 [18] = test: Antagonistic cytotoxicity against human SW480 cells measured after 3 days in presence of 50 nM AZD0156 by SRB assay; assay type: functional, cell-based; conditions: SW480, 72 h
[19] = target: T1, Serine-protein kinase ATM; test: Inhibition of ATM (unknown origin) assessed as decrease in phosphorylation of ATM at 25 uM measured in presence of 1 to 5 uM KU60019 by Western blot analysis
[20] = target: T1, Serine-protein kinase ATM; test: Inhibition of ATM (unknown origin) assessed as decrease in phosphorylation of KAP1 at 25 uM measured in presence of 1 to 5 uM KU60019 by Western blot analysis
MCF7 [21] = test: Induction of cell cycle arrest in human MCF7 cells assessed as decrease in accumulation of cells at G1-phase in presence of 5 uM KU60019 measured after 24 hrs by PI staining based flow cytometric analysis; assay type: functional
MCF7 [22] = test: Induction of cell cycle arrest in human MCF7 cells assessed as accumulation of cells at S-phase in presence of 5 uM KU60019 measured after 24 hrs by PI staining based flow cytometric analysis; assay type: functional
MCF7 [23] = test: cells; conditions: Homo sapiens, MCF7, 144 h; remark: listed apart in the source
[24] = target: T1, Serine-protein kinase ATM; test: Inhibition of ATM (unknown origin) assessed as decrease in phosphorylation of ATM at 25 uM measured in presence of 50 nM AZD0156 by Western blot analysis
[25] = target: T1, Serine-protein kinase ATM; test: Inhibition of ATM (unknown origin) assessed as decrease in phosphorylation of p21 at 25 uM measured in presence of 1 uM KU60019 by Western blot analysis
NCI-H1299 [26] = test: Synergistic cytotoxicity against human NCI-H1299 cells measured in presence of 50 nM AZD0156 after 2 days by SRB assay; assay type: functional, cell-based; conditions: NCI-H1299, 48 h
MCF7 [27] = test: cells; conditions: Homo sapiens, MCF7, 144 h; remark: listed apart in the source
MCF7 [28] = test: Induction of apoptosis in human MCF7 cells at 62 nM in presence of 1 to 5 uM KU60019 measured after 6 days by Annexin V-FITC/propidium iodide staining based flow cytometry analysis; assay type: functional, cell-based; conditions: time 6.0 day
MCF7 [29] = test: Induction of apoptosis in human MCF7 cells at 62 nM in presence of 50 nM AZD0156 measured after 6 days by Annexin V-FITC/propidium iodide staining based flow cytometry analysis; assay type: functional, cell-based; conditions: time 6.0 day
[30] = target: T1, Serine-protein kinase ATM; test: Inhibition of ATM (unknown origin) assessed as decrease in phosphorylation of p21 at 25 uM measured in presence of 50 nM AZD0156 by Western blot analysis
NCI-H1299 [31] = test: Synergistic cytotoxicity against human NCI-H1299 cells assessed as combination index measured in presence of 50 nM AZD0156 after 2 days by SRB assay; assay type: functional; conditions: time 2 day
MCF7 [32] = test: Induction of cell cycle arrest in human MCF7 cells assessed as accumulation of cells at S-phase measured after 24 hrs by PI staining based flow cytometric analysis; assay type: functional; conditions: DDE = dose-dependent effect
MCF7 [33] = test: Additive cytotoxicity against human MCF7 cells assessed as combination index in presence of 10 uM 3-Chloro-4-methoxy-N-((4-(oxazolo[4,5-b]pyridin-2-yl)phenyl)carbamothioyl)benzamide measured after 6 days by SRB assay; assay type: functional; conditions: time 6 day
NCI-H1299 [34] = test: Synergistic cytotoxicity against human NCI-H1299 cells measured in presence of 5 uM KU60019 after 2 days by SRB assay; assay type: functional, cell-based; conditions: NCI-H1299, 48 h
MCF7 [35] = test: Synergistic cytotoxicity against human MCF7 cells assessed as combination index measured after 6 days in presence of 5 uM KU55933 by SRB assay; assay type: functional; conditions: time 6 day

T1 sequence (Q13315 whole entry): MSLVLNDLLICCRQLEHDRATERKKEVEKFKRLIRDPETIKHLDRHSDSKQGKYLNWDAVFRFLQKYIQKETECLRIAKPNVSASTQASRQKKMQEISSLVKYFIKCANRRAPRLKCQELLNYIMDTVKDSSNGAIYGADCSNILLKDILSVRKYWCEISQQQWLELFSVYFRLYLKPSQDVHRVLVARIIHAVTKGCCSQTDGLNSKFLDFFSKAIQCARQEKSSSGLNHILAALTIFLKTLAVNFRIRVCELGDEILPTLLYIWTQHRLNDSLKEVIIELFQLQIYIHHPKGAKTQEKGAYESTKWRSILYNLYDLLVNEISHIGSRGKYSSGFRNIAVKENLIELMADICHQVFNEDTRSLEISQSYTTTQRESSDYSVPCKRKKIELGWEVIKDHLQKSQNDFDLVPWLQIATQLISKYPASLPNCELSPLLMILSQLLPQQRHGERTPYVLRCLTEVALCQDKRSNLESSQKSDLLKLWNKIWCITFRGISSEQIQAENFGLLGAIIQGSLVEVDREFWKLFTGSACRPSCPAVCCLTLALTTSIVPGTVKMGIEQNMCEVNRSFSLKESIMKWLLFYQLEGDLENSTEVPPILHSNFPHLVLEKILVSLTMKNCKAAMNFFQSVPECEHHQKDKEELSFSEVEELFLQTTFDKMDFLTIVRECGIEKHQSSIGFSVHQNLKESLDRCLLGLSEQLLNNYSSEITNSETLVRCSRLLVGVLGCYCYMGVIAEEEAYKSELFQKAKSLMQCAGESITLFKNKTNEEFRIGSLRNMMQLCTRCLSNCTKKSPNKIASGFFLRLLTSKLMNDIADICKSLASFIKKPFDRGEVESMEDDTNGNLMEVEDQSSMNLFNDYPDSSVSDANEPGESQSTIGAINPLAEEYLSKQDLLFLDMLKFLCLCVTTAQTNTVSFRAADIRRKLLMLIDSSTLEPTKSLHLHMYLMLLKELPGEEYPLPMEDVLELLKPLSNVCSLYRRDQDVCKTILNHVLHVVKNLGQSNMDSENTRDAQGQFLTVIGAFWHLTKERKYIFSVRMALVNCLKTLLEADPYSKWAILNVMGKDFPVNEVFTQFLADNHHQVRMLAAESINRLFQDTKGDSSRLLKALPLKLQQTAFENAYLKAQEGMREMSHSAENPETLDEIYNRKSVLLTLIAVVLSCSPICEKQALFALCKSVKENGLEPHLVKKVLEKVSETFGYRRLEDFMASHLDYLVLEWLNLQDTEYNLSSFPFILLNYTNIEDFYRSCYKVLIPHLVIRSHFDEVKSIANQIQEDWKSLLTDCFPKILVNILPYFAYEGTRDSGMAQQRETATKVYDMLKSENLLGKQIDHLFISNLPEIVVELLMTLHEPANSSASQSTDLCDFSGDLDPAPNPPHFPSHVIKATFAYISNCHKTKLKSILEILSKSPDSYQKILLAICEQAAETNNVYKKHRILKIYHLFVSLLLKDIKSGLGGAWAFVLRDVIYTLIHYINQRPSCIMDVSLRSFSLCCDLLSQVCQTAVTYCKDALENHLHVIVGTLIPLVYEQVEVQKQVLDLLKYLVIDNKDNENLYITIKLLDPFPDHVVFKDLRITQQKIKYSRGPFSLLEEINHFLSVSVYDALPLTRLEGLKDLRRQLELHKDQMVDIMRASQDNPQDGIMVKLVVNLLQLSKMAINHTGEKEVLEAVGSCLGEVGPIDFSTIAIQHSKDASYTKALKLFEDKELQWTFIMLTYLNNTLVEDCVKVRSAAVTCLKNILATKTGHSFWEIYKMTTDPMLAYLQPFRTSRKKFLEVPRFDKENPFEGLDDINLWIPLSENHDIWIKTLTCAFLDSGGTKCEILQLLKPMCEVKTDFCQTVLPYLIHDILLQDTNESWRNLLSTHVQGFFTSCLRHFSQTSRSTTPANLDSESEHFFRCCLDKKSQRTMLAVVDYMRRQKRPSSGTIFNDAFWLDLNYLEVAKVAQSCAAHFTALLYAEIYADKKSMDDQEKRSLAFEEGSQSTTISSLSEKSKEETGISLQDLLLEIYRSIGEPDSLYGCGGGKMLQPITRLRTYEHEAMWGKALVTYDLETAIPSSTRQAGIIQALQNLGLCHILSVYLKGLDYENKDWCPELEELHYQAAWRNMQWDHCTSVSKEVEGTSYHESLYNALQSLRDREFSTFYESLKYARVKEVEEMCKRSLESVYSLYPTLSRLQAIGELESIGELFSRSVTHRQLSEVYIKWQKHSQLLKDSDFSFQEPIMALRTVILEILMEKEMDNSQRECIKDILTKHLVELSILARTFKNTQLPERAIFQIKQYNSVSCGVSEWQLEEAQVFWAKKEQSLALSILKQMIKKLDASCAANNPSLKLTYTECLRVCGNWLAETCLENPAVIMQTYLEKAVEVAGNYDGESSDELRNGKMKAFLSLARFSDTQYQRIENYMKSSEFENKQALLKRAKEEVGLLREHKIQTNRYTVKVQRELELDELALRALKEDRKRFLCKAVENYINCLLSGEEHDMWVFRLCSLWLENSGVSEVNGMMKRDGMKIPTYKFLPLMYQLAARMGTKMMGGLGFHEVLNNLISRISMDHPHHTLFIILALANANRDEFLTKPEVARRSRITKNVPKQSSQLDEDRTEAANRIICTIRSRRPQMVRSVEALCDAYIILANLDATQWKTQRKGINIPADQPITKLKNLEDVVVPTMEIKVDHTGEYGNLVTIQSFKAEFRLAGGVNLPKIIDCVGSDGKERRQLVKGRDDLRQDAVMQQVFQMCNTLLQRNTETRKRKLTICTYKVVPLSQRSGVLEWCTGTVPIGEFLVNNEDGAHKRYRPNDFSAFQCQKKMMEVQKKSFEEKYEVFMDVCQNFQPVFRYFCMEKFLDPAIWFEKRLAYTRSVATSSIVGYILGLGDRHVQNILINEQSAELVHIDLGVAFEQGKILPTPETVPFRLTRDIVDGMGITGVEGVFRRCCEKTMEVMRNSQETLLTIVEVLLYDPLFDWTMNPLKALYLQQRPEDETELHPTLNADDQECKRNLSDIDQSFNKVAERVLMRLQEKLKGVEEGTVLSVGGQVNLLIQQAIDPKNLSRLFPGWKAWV

pIC50 (MCF7 [9]): 6.68
SMILES: CCc1c2c(nc3ccc(OC(=O)N4CCC(N5CCCCC5)CC4)cc13)-c1cc3c(c(=O)n1C2)COC(=O)[C@]3(O)CC [IRINOTECAN]
CI (MCF7 [1]): 0.16
pIC50 (NCI-H1299 [2]): 5.74
CI (NCI-H1299 [3]): 1.04
CI (SW480 [4]): 1.02
pIC50 (NCI-H1299 [5]): 6.66
CI (MCF7 [6]): 0.18
CI (MCF7 [7]): 1.49
pIC50 (NCI-H1299 [8]): 4.82
Activity (SW480 [10]): Active
CI (NCI-H1299 [11]): 1.13
pIC50 (NCI-H1299 [12]): 5.01
pIC50 (MCF7 [13]): 5.62
Activity (SW480 [14]): Active

inhibition [16]: Active
inhibition [17]: 53%
inhibition [19]: Active
inhibition [20]: Active
pIC50 (MCF7 [23]): 6.25
inhibition [24]: Active
inhibition [25]: 25%
pIC50 (MCF7 [27]): 6.23
inhibition [30]: 41%
SMILES: COc1cc([C@@H]2c3cc4c(cc3[C@@H](O[C@@H]3O[C@@H]5CO[C@@H](C)O[C@H]5[C@H](O)[C@H]3O)[C@H]3COC(=O)[C@H]23)OCO4)cc(OC)c1O [ETOPOSIDE]
CI (NCI-H1299 [15]): 0.84
pIC50 (NCI-H1299 [2]): 6.15
pIC50 (SW480 [18]): 5.44
CI (SW480 [4]): 0.95
pIC50 (NCI-H1299 [5]): 6.62
Activity (MCF7 [21]): Active
Activity (MCF7 [22]): Active
pIC50 (NCI-H1299 [26]): 5.05
Activity (MCF7 [28]): Active
Activity (MCF7 [29]): Active
CI (NCI-H1299 [31]): 0.82
Activity (MCF7 [32]): Dde
CI (MCF7 [33]): 1.01
pIC50 (NCI-H1299 [34]): 5.24
CI (MCF7 [35]): 0.73
